According to patent US8674097B2, “Quinoxalinedione derivatives useful as activators of AMPK-activated protein kinase” (Merck Patent GmbH, priority 2008, dated 2014):

Assays:
[1] = biological target: T1, AMPK protein (recombinant α1β1γ2) (Homo sapiens, UniProt Q13131+Q9UGJ0+Q9Y478); experiment: AMPK enzymatic activity (Delfia, AMARA peptide); format: biochemical; settings: compound 30 μM vs AMP 30 μM; 125 μM ATP; direct activator if ratio is 90% or higher
T1 construct: made in house; host or cells: E. coli
Experimental: The following biological test allows the determination of the efficacy of such compounds of formula (I) onto AMPK protein (recombinant α1β1γ2).
Human recombinant AMPK enzyme was expressed in E. Coli and was reactivated in vitro by LKB1 prior to enzyme activity determination. AMPK enzyme activities were assayed by using A Delfia technology. AMPK enzyme activities were carried out in microtiter plates (50 mM Hepes buffer, pH 7.4 with 125 μM ATP respectively) in the presence of a synthetic peptide substrate (AMARAASAAALARRR, the “AMARA” peptide) and activators in serial dilutions. Reactions were initiated by the addition of AMPK (50-100 ng). Following mixing, the plates were incubated for 30 min at room temperature. Enzyme activity was assayed by using an anti-phosphoserine antibody to measure the quantity of phosphate incorporated into the AMARAA.
Ratio between the % of control (basal activity) of compound of formula (I) at 30 μM and the % of control (basal activity) of AMP (natural […]) at 30 μM.
Compounds of formula (I) are considered as direct activator of AMPK if the ratio is 90% or higher.

ob/ob and db/db mice = settings: 8 day AICAR administration; cited from earlier work

T1 sequence (Q13131 whole entry): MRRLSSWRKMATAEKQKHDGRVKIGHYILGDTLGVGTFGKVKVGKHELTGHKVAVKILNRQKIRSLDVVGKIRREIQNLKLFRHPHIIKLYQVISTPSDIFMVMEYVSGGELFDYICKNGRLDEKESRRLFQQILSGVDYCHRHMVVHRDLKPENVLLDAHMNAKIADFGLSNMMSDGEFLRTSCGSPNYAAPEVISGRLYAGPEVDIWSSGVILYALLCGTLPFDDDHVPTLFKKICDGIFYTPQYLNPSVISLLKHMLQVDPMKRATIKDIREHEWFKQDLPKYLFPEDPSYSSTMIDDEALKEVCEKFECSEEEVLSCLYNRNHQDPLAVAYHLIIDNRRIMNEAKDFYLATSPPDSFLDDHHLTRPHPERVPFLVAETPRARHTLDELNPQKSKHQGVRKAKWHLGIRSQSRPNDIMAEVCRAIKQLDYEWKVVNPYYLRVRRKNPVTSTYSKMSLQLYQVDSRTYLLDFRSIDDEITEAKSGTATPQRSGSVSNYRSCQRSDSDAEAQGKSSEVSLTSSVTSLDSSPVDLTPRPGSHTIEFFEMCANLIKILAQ
T1 sequence (Q9Y478 whole entry): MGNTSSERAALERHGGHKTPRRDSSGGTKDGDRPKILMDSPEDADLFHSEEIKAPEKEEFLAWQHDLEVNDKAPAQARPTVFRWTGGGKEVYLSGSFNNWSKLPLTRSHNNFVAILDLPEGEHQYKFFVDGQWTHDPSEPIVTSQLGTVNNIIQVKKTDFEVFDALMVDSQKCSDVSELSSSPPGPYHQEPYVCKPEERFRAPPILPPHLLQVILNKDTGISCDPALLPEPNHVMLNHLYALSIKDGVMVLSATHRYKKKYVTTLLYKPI
T1 sequence (Q9UGJ0 whole entry): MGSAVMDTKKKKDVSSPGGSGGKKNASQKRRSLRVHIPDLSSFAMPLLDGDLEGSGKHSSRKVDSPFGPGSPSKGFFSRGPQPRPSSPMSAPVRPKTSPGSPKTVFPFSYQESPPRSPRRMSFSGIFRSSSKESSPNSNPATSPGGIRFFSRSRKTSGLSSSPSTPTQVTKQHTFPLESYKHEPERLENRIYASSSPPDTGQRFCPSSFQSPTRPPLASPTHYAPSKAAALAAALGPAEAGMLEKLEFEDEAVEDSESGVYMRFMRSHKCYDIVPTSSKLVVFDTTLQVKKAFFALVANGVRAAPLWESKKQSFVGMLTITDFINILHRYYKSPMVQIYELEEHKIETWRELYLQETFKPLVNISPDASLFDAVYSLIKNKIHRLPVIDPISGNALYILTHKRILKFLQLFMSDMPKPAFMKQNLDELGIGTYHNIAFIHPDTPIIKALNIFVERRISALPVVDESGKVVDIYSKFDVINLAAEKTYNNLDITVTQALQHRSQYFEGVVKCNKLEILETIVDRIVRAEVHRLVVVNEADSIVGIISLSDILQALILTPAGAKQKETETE

| SMILES | Activity: ratio between the % of control (basal activity) of compound at 30 μM and the % of control (basal activity) of AMP at 30 μM [1] [%] | reduction of blood glucose (ob/ob and db/db mice) [%] |
| --- | --- | --- |
| O=c1[nH]c2cccc(O)c2[nH]c1=O [5-hydroxy-1,4-dihydroquinoxaline-2,3-dione] | 130 | – |
| NC(=O)c1ncn([C@@H]2O[C@H](CO)[C@@H](O)[C@H]2O)c1N [AICAR] | – | 35 |
| CC(=O)Oc1cccc2[nH]c(=O)c(=O)[nH]c12 [Acetic acid 2,3-dioxo-1,2,3,4-tetrahydro-quinoxalin-5-yl ester] | 120 | – |
